The values that follow come from patent publication US4057644A, “Active derivatives of methylamine in therapeutic compositions and methods of use” (priority 1976, dated 1977).

Data set [1] concerns neuroleptic-induced catatonia (prochlorperazine). As to the kind of experiment: Inhibition of neuroleptic-induced catatonia. The class given is in vivo, rat (male, OFA strain). The conditions noted are these: rat, oral; for activity compared with amantadine (neuroleptic-induced catatonia): versus amantadine. How it is done:
The blocking of dopaminergic receptors by neuroleptics in the extra-pyramidal system induces catatonia in the rat. Catatonia is differentiated from sedative properties by means of the test used hereabove for reserpine-induced catatonia. The same system of scoring was also employed in the present case.
An oral dose of the compound to be studied in aqueous solution was administered to batches of 10 male rats of the OFA strain weighing about 150 to 200 g.
Three hours after the injection of this latter compound, catatonia was measured. An identical trial was also carried out with control animals which received prochlorperazine but none of the compounds under study.

The conditions of data set [2]: J. Amer. Chem. Soc., 71, 3352 (1949); cited from earlier work.
For data set [3] the following is noted: J. Amer. Chem. Soc., 71, 3352 (1949); cited from earlier work. This is another data set of the same source.
Another data set relates to mice. The conditions noted are these: for Index LD50/ED20-30: LD50 mice oral / dose giving 20 to 30% inhibition of catatonia; for Index LD50/ED100: LD50 mice oral / dose giving 100% inhibition of catatonia.
A further data set is described as follows: in vivo. Particulars: mouse, po.
The test system of data set [4] is reserpine-induced catatonia. As to the kind of experiment: Inhibition of reserpine-induced catatonia. The class given is in vivo, rat (male, OFA strain). The conditions noted are these: rat, oral. How it is done:
Ater sufficient doses of reserpine have been administered to the rat, a series of symptoms occur, more particularly ptosis, catatonia and a drop in central temperature. These symptoms are caused by the depletion of the intrangranular reserve pool of biogenetic amines at the synaptic terminals.
An oral dose of the compound to be studied in aqueous solution was administered to batches of 10 male rats of the OFA strain weighing about 150 to 200 g. Thirty minutes later a dose of 5 mg/kg of reserpine was given by intraperitoneal route. Three hours after the injection of reserpine, the animals were suspended by the four paws to a horizontally stretched wire fixed at 15 cm from the ground. The catatonic animals were those which maintained the position so given for at least 30 seconds. […] The maximum score was therefore 10 per batch. An identical trial was undertaken with control animals which received reserpine but none of the compounds being studied.
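Throughout, for Index LD50/ED100: LD50 part of every column derived from compounds dosed in aqueous solution, deaths followed over a 10-day observation period after dosing.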
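Throughout, for Index LD50/ED20-30: LD50 part of every column derived from compounds dosed in aqueous solution, deaths followed over a 10-day observation period after dosing.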
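Throughout, for LD50: LD50 part of every column derived from compounds dosed in aqueous solution, deaths followed over a 10-day observation period after dosing.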

Turning to `CCCC(CCC)(CCC)N(CCO)CCO` [Compound 44, N,n-bis-(2-Hydroxyethyl)-1,1-di-n-propyl-n-butylamine], the “Inhibition of the neuroleptic-induced catatonia” value in data set [1] (15 mg/kg) is reported as 1 (represents 20 to 30% inhibition of catatonia in comparison with the controls (namely a score of 7 to 8 per studied batch)).

Take `CCCCC(N)(CCCC)CCCC` [Compound 12, 1,1-Di-n-butyl-n-pentylamine]: the “spasmolytic activity versus the corresponding trialkylethylamines” value in data set [2] is reported as “less spasmolytic”. Moreover, the “toxicity versus the corresponding trialkylethylamines” value in data set [3] is on record as “more toxic”. Moreover, the “Index LD50/ED20-30” value in the data set with mice was determined as 25.

Usually LD50 stands for the dose at which mortality reaches 50%. On to `CCCC(CCC)(CCC)NC` [Compound 27, N-methyl-1,1-di-n-propyl-n-butylamine], for which the “Inhibition of the neuroleptic-induced catatonia” value in data set [1] (6 mg/kg) was 3 (represents 70 to 80% inhibition of catatonia in comparison with the controls (namely a score of 2 or 3 per studied batch)). Further, in the data set on mice, the “Index LD50/ED100” value is reported as 16.5. This compound also registered an LD50 at 240 h in “in vivo” of 100 mg/kg.

As for `CCCC(N)(CC)CC(C)C` (centres unmarked) [Compound 3, 1-Ethyl-1-isobutyl-n-butylamine], the “Inhibition of the neuroleptic-induced catatonia” value in data set [1] (20 mg/kg) is given as 3 (represents 70 to 80% inhibition of catatonia in comparison with the controls (namely a score of 2 or 3 per studied batch)).

Turning to `CC=NC(CCC)(CCC)CCC` [Compound 42, N-ethylidene-1,1-di-n-propyl-n-butylamine], the “Index LD50/ED100” value with mice turned out to be 20. This compound also yielded a 50% lethal dose (LD50) at 240 h in “in vivo” of 120 mg/kg.

As to `C#CCNC(CCC)(CCC)CCC` [Compound 36, N-propargyl-1,1-di-n-propyl-n-butylamine], the “Index LD50/ED20-30” value in the data set on mice was above 25. The median lethal dose (LD50) at 240 h in the data set “in vivo” is above 150 mg/kg.

Consider `CCCC(CCC)(CCC)N1CCC1` [Compound 29, N,n-trimethylene-1,1-di-n-propyl-n-butylamine], for which the “Index LD50/ED100” value with mice is 10.8. Moreover, in the data set “in vivo”, the LD50 at 240 h was 65 mg/kg.

Consider `C=CCC(CCC)(CCC)NC` [Compound 32, N-methyl-1-n-propyl-1-alkyl-n-butylamine], for which, in data set [4] (5 mg/kg), the “Inhibition of reserpine-induced catatonia” value is recorded as 2 (represents 50% inhibition of catatonia in comparison with the controls (namely a score of 5 per studied batch)). This compound displayed an LD50 at 240 h in “in vivo” of 170 mg/kg.

Take `CCCC(CCC)(NC)C(C)C` [Compound 30, N-methyl-1-n-propyl-1-isopropyl-n-butylamine]: in data set [1] (6 mg/kg), the “Inhibition of the neuroleptic-induced catatonia” value is recorded as 3 (represents 70 to 80% inhibition of catatonia in comparison with the controls (namely a score of 2 or 3 per studied batch)). The “Index LD50/ED100” value in the data set with mice is recorded as above 25. The compound also had a median lethal dose (LD50) at 240 h in the data set “in vivo” above 150 mg/kg.

In the case of `CCCC(CCC)(CCC)N(C)CC` [Compound 38, N-methyl-N-ethyl-1,1-di-n-propyl-n-butylamine], the “Inhibition of reserpine-induced catatonia” value in data set [4] (6.5 mg/kg) is listed as 2 (represents 50% inhibition of catatonia in comparison with the controls (namely a score of 5 per studied batch)). In the data set “in vivo”, the 50% lethal dose (LD50) at 240 h was above 120 mg/kg.

For the compound `CCCC(CCC)(CCC)NCC` [Compound 33, N-ethyl-1,1-di-n-propyl-n-butylamine], the “Inhibition of reserpine-induced catatonia” value in data set [4] (6 mg/kg) is recorded as 2 (represents 50% inhibition of catatonia in comparison with the controls (namely a score of 5 per studied batch)). In addition, the “Index LD50/ED100” value in the data set with mice turned out to be 16.5. This compound also had a median lethal dose (LD50) at 240 h in “in vivo” of 100 mg/kg.

For the compound `CCCC(CCC)(CCC)NCCO` [Compound 43, N-(2-hydroxyethyl)-1,1-di-n-propyl-n-butylamine], the “Inhibition of the neuroleptic-induced catatonia” value in data set [1] (6.5 mg/kg) is reported as 1 (represents 20 to 30% inhibition of catatonia in comparison with the controls (namely a score of 7 to 8 per studied batch)). Also, the “Index LD50/ED20-30” value in the data set with mice stood at 23. This compound also returned a median lethal dose (LD50) at 240 h in the data set “in vivo” of 150 mg/kg.

Turning to `CCCCC(C)(N)CC(C)C` (centres unmarked) [Compound 8, 1-Methyl-1-isobutyl-n-pentylamine], the “activity compared with amantadine (neuroleptic-induced catatonia)” value in data set [1] is listed as “twice as active”.

For `CCCC(C)(N)CC(C)CC` (centres unmarked) [Compound 6, 1,3-Dimethyl-1-n-propyl-n-pentylamine], the “Index LD50/ED20-30” value in the data set with mice was above 25.

For `CCCC(N)(CC)CCC` [Compound 2, 1-Ethyl-1-n-propyl-n-butylamine], the “Inhibition of the neuroleptic-induced catatonia” value in data set [1] (5 mg/kg) is 1 (represents 20 to 30% inhibition of catatonia in comparison with the controls (namely a score of 7 to 8 per studied batch)). In the data set on mice, the “Index LD50/ED20-30” value is 30.

In the case of `C=NC(CCC)(CCC)CCC` [Compound 41], the “Index LD50/ED100” value with mice was determined as 27. The compound also returned an LD50 at 240 h in the data set “in vivo” above 150 mg/kg.

As for `CCCCCC(C)(N)CCC` (centres unmarked) [Compound 9, 1-Methyl-1-n-propyl-n-hexylamine], in the data set with mice, the “Index LD50/ED20-30” value turned out to be 87.

As to `CCCC(N)(CCC)CC(C)C` [Compound 5, 1-n-Propyl-1-isobutyl-n-butylamine], in data set [1], the “activity compared with amantadine (neuroleptic-induced catatonia)” value was “five times more active”. In data set [4] (20 mg/kg), the “Inhibition of reserpine-induced catatonia” value is on record as 2 (represents 50% inhibition of catatonia in comparison with the controls (namely a score of 5 per studied batch)).

Consider `CCCC(CCC)(CCC)NC(C)C` [Compound 34, N-isopropyl-1,1-di-n-propyl-n-butylamine], for which the “Inhibition of reserpine-induced catatonia” value in data set [4] (6.5 mg/kg) is 2 (represents 50% inhibition of catatonia in comparison with the controls (namely a score of 5 per studied batch)). In addition, the “Index LD50/ED100” value with mice is recorded as 21.6.

`C=CCNC(CCC)(CCC)CCC` [Compound 35, N-allyl-1,1-di-n-propyl-n-butylamine]: the “Inhibition of reserpine-induced catatonia” value in data set [4] (6 mg/kg) is on record as 2 (represents 50% inhibition of catatonia in comparison with the controls (namely a score of 5 per studied batch)). For the same compound, the “Index LD50/ED100” value in the data set on mice worked out at 21. This compound also gave an LD50 at 240 h in the data set “in vivo” of 130 mg/kg.

As for `C#CCN(CC#C)C(CCC)(CCC)CCC` [Compound 39, N,n-dipropargyl-1,1-di-n-propyl-n-butylamine], the “Inhibition of reserpine-induced catatonia” value in data set [4] (15 mg/kg) is on record as 2 (represents 50% inhibition of catatonia in comparison with the controls (namely a score of 5 per studied batch)). Besides, in the data set “in vivo”, the 50% lethal dose (LD50) at 240 h was above 150 mg/kg.

For `CCCC(CCC)(CCC)NCCCO` [Compound 45, N-(3-hydroxy-n-propyl)-1,1-di-n-propyl-n-butylamine], the “Inhibition of reserpine-induced catatonia” value in data set [4] (14 mg/kg) is reported as 2 (represents 50% inhibition of catatonia in comparison with the controls (namely a score of 5 per studied batch)). The compound further came in with a 50% lethal dose (LD50) at 240 h in the data set “in vivo” of 140 mg/kg.

On to `CCCC(CCC)(CC(C)C)N(C)C` [Compound 37, N,n-dimethyl-1-n-propyl-1-isobutyl-n-butylamine], for which, in the data set “in vivo”, the LD50 at 240 h amounted to 110 mg/kg.

As for `CCCC(CCC)(CCC)N1CCOCC1` [Compound 46, N,n-(3-oxyapentamethylene)-1,1-di-n-propyl-n-butylamine], in the data set on mice, the “Index LD50/ED20-30” value was 31. The LD50 at 240 h in “in vivo” worked out at 250 mg/kg.

In the case of `CCCC(CCC)(CCC)N1CC1` [Compound 40, N,n-ethylene-1,1-di-n-propyl-n-butylamine], the results for the “Inhibition of the neuroleptic-induced catatonia” value in data set [1] (6 mg/kg) and in data set [1] (12 mg/kg) were 1 (represents 20 to 30% inhibition of catatonia in comparison with the controls (namely a score of 7 to 8 per studied batch)) and 3 (represents 70 to 80% inhibition of catatonia in comparison with the controls (namely a score of 2 or 3 per studied batch)), respectively. The “Inhibition of reserpine-induced catatonia” value in data set [4] (6 mg/kg) is 2 (represents 50% inhibition of catatonia in comparison with the controls (namely a score of 5 per studied batch)). Besides, the “Index LD50/ED20-30” value with mice is reported as above 25. For the same compound, the 50% lethal dose (LD50) at 240 h in “in vivo” was above 150 mg/kg.
